Measurements taken from PubChem BioAssay (NCI).
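Step 1: Grow cells in 96-well plates. Step 2: Expose to compound for 48 hours at 5 concentrations. Step 3: Interpolate endpoints linearly; if unreached, use highest concentration. The concentration for 50% growth inhibition is given as GI50. TGI marks complete inhibition of growth.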 Where a SMILES comes first, the peptide text is derived from it.

Tests used:
Assay in all cases: NCI anticancer screen, dose series, 48 h
MDA-N = tested on: MDA-N
SF-539 CNS = tested on: SF-539 CNS
MDA-MB-231 breast = tested on: MDA-MB-231 breast
SR leukemia = tested on: SR leukemia
786-0 renal = tested on: 786-0 renal
HCC-2998 colon = tested on: HCC-2998 colon
BT-549 breast = tested on: BT-549 breast
NCI-H522 lung = tested on: NCI-H522 lung
SNB-75 CNS = tested on: SNB-75 CNS
M19-MEL melanoma = tested on: M19-MEL melanoma
RXF-631 renal = tested on: RXF-631 renal
SNB-78 CNS = tested on: SNB-78 CNS
DLD-1 colon = tested on: DLD-1 colon
KM20L2 colon = tested on: KM20L2 colon

| Structure (SMILES) | TGI (MDA-N) | TGI (SF-539 CNS) | TGI (MDA-MB-231 breast) | TGI (SR leukemia) | TGI (786-0 renal) | TGI (HCC-2998 colon) | TGI (BT-549 breast) | TGI (NCI-H522 lung) | TGI (SNB-75 CNS) | TGI (M19-MEL melanoma) | TGI (RXF-631 renal) | TGI (SNB-78 CNS) | TGI (DLD-1 colon) | TGI (KM20L2 colon) | GI50 (SF-539 CNS) | GI50 (MDA-MB-231 breast) | GI50 (SR leukemia) | GI50 (HCC-2998 colon) | GI50 (BT-549 breast) | GI50 (SNB-75 CNS) |
| --- | --- | --- | --- | --- | --- | --- | --- | --- | --- | --- | --- | --- | --- | --- | --- | --- | --- | --- | --- | --- |
| O=S(=O)(O)c1cc(N=[N+]([O-])c2cc(S(=O)(=O)O)c3ccccc3c2)cc2ccccc12 | 41.7 µM | 60.2 µM | > 100 µM | > 100 µM | > 100 µM | > 100 µM | 39 µM | 65.9 µM | 30 µM | – | – | – | – | – | – | – | – | – | – | – |
| Cc1ccccc1NC(=O)CC(=O)N1N=C(N2c3ccccc3Sc3ccccc32)CC1c1ccccc1 (stereo not drawn) | – | > 100 µM | – | > 100 µM | – | > 100 µM | – | – | > 100 µM | > 100 µM | > 100 µM | > 100 µM | > 100 µM | > 100 µM | – | – | – | – | – | – |
| Nc1cc(-c2ccc(Cl)cc2)nn1-c1nc2ccccc2nc1-c1ccccc1 | > 100 µM | > 100 µM | > 100 µM | > 100 µM | > 100 µM | > 100 µM | > 100 µM | > 100 µM | 64.9 µM | – | – | – | – | – | – | – | – | – | – | – |
| COc1cc2c(cc1OCCCCCCCCN1C(=O)c3cccc4cccc(c34)C1=O)N=C[C@@H]1CCCN1C2=O | – | 13.2 µM | 34 µM | 21.7 µM | > 100 µM | 30.7 µM | 35.1 µM | 39.9 µM | 10.3 µM | – | – | – | – | – | – | – | – | – | – | – |
| N#Cc1c(N)nc2c(c1-c1ccc(Br)cc1)CSc1ccccc1-2 | > 100 µM | > 100 µM | 51.6 µM | > 100 µM | > 100 µM | – | > 100 µM | – | > 100 µM | – | – | – | – | – | – | – | – | – | – | – |
| CCC(C)C(NC(=O)C1CCCN1C(=O)C(CC(C)C)NC(=O)C(CC(C)C)NC(=O)C(N)CC(C)C)C(=O)NC(C(=O)NCC(=O)NC(CC(N)=O)C(=O)NC(CC(C)C)C(=O)NC(CC(C)C)C(=O)NC(CC(C)C)C(N)=O)C(C)C (stereo not drawn) (H-LLLPIVGNLLL-NH2; configuration not given here) | > 50 µM | > 50 µM | > 50 µM | > 50 µM | > 50 µM | – | > 50 µM | > 50 µM | – | – | – | – | – | – | – | – | – | – | – | – |
| O=C1CC2(CCC(O)(c3cccs3)C(C(=O)c3cccs3)C2)C(=O)c2ccccc2N1 (stereo not drawn) | > 100 µM | > 100 µM | > 100 µM | > 100 µM | – | > 100 µM | > 100 µM | – | > 100 µM | – | – | – | – | – | – | – | – | – | – | – |
| C1=CC(=[N+]2N=C(c3ccccc3)CC2c2ccccc2)C=CC1=C1SC(c2ccccc2)(c2ccccc2)c2ccccc21 (stereo not drawn) | > 100 µM | > 100 µM | > 100 µM | > 100 µM | > 100 µM | > 100 µM | > 100 µM | – | – | – | – | – | – | – | – | – | – | – | – | – |
| Cc1cc(=O)[nH]c(/N=C(\N)Nc2ccc(Cl)cc2)n1 | > 100 µM | – | > 100 µM | > 100 µM | > 100 µM | > 100 µM | > 100 µM | > 100 µM | – | – | – | – | – | – | – | – | – | – | – | – |
| C/C(N=Nc1nc2ccccc2[nH]1)=C1/C=CC=CN1O | > 100 µM | > 100 µM | > 100 µM | > 100 µM | > 100 µM | > 100 µM | > 100 µM | > 100 µM | – | – | – | – | – | – | – | – | – | – | – | – |
| CCCCCOC(=O)c1cc2cc(CCl)ccc2oc1=O | 20.9 µM | > 93.3 µM | 37.5 µM | 67.5 µM | 18.2 µM | 28.1 µM | 40.6 µM | 1.3 µM | 31.2 µM | – | – | – | – | – | – | – | – | – | – | – |
| O=C1c2ccccc2C(C2c3ccccc3C(=O)c3cc(Br)ccc32)c2ccc(Br)cc21 (stereo not drawn) | > 100 µM | – | > 100 µM | – | > 100 µM | > 100 µM | > 100 µM | > 100 µM | > 100 µM | – | – | – | – | – | – | – | – | – | – | – |
| COC(CN(C=O)[C@@H](c1ccc(Cl)cc1)c1cc2ccccc2o1)OC | 31.6 µM | 34.3 µM | 37 µM | – | 51.1 µM | – | – | 29.2 µM | 42.7 µM | – | – | – | – | – | – | – | – | – | – | – |
| NC(=S)N1N=C(c2ccccc2O)CC1c1ccccc1 (stereo not drawn) | 10.5 µM | 36.1 µM | – | – | 60 µM | 27.3 µM | 75 µM | 18.8 µM | 52.9 µM | – | – | – | – | – | – | – | – | – | – | – |
| Nc1ccc(-c2nc3cc(F)ccc3s2)cc1CO | > 100 µM | 46.7 µM | > 70 µM | – | > 100 µM | 6.17 µM | 51.2 µM | > 100 µM | 36.8 µM | – | – | – | – | – | – | – | – | – | – | – |
| CC(=O)c1ccc2c(c1)N(CCCN1CCN(CCO)CC1)c1ccccc1C2 | 26.7 µM | 33.1 µM | 26.7 µM | – | 31.5 µM | – | 28.1 µM | 31.2 µM | 30.5 µM | – | – | – | – | – | – | – | – | – | – | – |
| CCCSc1ccc2[nH]c(N3C(=O)/C(=C/c4cc(OC)c(OC)c(OC)c4)N=C3c3ccccc3)cc2c1 | 12.3 µM | 23.6 µM | > 37.5 µM | > 34.9 µM | > 25 µM | > 32.6 µM | 37.4 µM | 26.8 µM | 33.5 µM | – | – | – | – | – | – | – | – | – | – | – |
| CSCCC(NC(=O)OCc1ccccc1)P(=O)(O)c1ccccc1 (stereo not drawn) | > 100 µM | – | > 100 µM | > 100 µM | – | > 100 µM | – | > 100 µM | > 100 µM | – | – | – | – | – | – | – | – | – | – | – |
| Nc1ccc(Oc2ccc(C34CC5CC(C3)CC(c3ccc(Oc6ccc(N)cc6)cc3)(C5)C4)cc2)cc1 | > 45.1 µM | 36.4 µM | 32.9 µM | > 100 µM | > 52.1 µM | 19.3 µM | 33.6 µM | 38.7 µM | 90.5 µM | – | – | – | – | – | – | – | – | – | – | – |
| O=C(O)C(O)C(O)C(O)C(=O)CO (stereo not drawn) | > 100 µM | > 100 µM | > 100 µM | > 100 µM | > 100 µM | > 100 µM | > 100 µM | > 100 µM | > 100 µM | – | – | – | – | – | – | – | – | – | – | – |
| CC(C)(C)[Si](C)(C)OCC1OC(n2cnc3c(N)ncnc32)CC1OS(C)(=O)=O (stereo not drawn) | > 100 µM | – | > 100 µM | > 100 µM | – | – | > 100 µM | – | – | – | – | – | – | – | – | – | – | – | – | – |
| CCCN1C(=O)CSC1=Nc1ccc2cc3ccc(N=C4SCC(=O)N4CCC)cc3nc2c1 | – | > 100 µM | > 100 µM | > 100 µM | 0.0603 µM | > 100 µM | > 100 µM | – | > 100 µM | – | – | – | – | – | 59.2 µM | 25.1 µM | 98.2 µM | > 100 µM | 46.5 µM | 22.3 µM |
| COc1ccc(C2c3cc4c(cc3OC(O)(CO)C2C(=O)O)OCO4)cc1 (stereo not drawn) (tested in a mixture with another compound) | – | 43.6 µM | – | 56.2 µM | – | 38.2 µM | – | – | 78.3 µM | 21.3 µM | 42.9 µM | 59 µM | 54.9 µM | > 100 µM | – | – | – | – | – | – |
| Cc1cnoc1NS(=O)(=O)c1ccc(Nc2nnc(/C=C/c3c(O)ccc4ccccc34)c(=O)n2N)cc1 | 82.2 µM | – | – | 55.6 µM | 77.1 µM | – | 53.9 µM | – | 77 µM | – | – | – | – | – | – | – | – | – | – | – |
| CC(C)C1OC(=O)/C=C/C=C/C=C/C=C/C=C/CC(O)C(C)C(O)CC(O)CC(O)CC(O)CC(O)CC(O)CC(O)/C=C/C1C (stereo not drawn) | – | > 100 µM | – | > 100 µM | – | > 100 µM | – | > 100 µM | > 100 µM | – | – | – | – | – | – | – | – | – | – | – |
| COC(=S)OC1CC(n2cnc3c(N)ncnc32)OC1CO[Si](C)(C)C(C)(C)C (stereo not drawn) | 46.7 µM | – | 39.9 µM | > 100 µM | – | – | 64.1 µM | – | – | – | – | – | – | – | – | – | – | – | – | – |
| COc1cc2c(cc1C)NC(=O)/C2=C/c1c(Cl)n(-c2ccccc2)c2ccccc12 | 37 µM | 24.3 µM | > 100 µM | 32.9 µM | 43.3 µM | 24.2 µM | 66.5 µM | 32.2 µM | > 100 µM | – | – | – | – | – | – | – | – | – | – | – |
| CCOC(=O)C(=O)NCCCN1CCOCC1 | – | > 100 µM | – | – | – | > 100 µM | – | > 100 µM | > 100 µM | > 100 µM | > 100 µM | > 100 µM | > 100 µM | > 100 µM | – | – | – | – | – | – |
